# Values quoted from earlier work, collected in publication PMC8513935.
# What was measured:
# [1] = log P octanol/water from commercial databases, averaged (the ESI); details: Octanol (wet), 25 C
# [2] = experimental, compiled by the authors from the literature (the ESI cites the sources)
# [3] = derived by the authors as gas->solvent minus gas->water (a hypothetical dry solvent; the ESI), not a two-phase measurement
compound,measurement,setting,value
Cc1ccc(O)cc1,"log K of transfer, water to solvent",[1],1.97 log10 K
same,"log K of transfer, gas to solvent","[2]; 1,2-Dichloroethane, 25 C",5.68 log10 K
same,"log K of transfer, gas to solvent","[2]; Benzene, 25 C",5.39 log10 K
same,"log K of transfer, gas to solvent","[2]; CCl4, 25 C",4.72 log10 K
same,"log K of transfer, gas to solvent","[2]; Chlorobenzene, 25 C",5.3 log10 K
same,"log K of transfer, gas to solvent","[2]; Chloroform, 25 C",5.56 log10 K
same,"log K of transfer, gas to solvent","[2]; Cyclohexane, 25 C",4.36 log10 K
same,"log K of transfer, gas to solvent","[2]; Dichloromethane, 25 C",5.65 log10 K
same,"log K of transfer, gas to solvent","[2]; Hexadecane, 25 C",4.31 log10 K
same,"log K of transfer, gas to solvent","[2]; Hexane, 25 C",4.16 log10 K
same,"log K of transfer, gas to solvent","[2]; Perfluoroalkane, 25 C",2.67 log10 K
same,"log K of transfer, gas to solvent","[2]; Water, 25 C",4.5 log10 K
same,"log K of transfer, water to solvent","[3]; 1,2-Dichloroethane, 25 C",1.18 log10 K
same,"log K of transfer, water to solvent","[3]; Benzene, 25 C",0.89 log10 K
same,"log K of transfer, water to solvent","[3]; CCl4, 25 C",0.22 log10 K
same,"log K of transfer, water to solvent","[3]; Chlorobenzene, 25 C",0.8 log10 K
same,"log K of transfer, water to solvent","[3]; Chloroform, 25 C",1.06 log10 K
same,"log K of transfer, water to solvent","[3]; Cyclohexane, 25 C",-0.14 log10 K
same,"log K of transfer, water to solvent","[3]; Dichloromethane, 25 C",1.15 log10 K
same,"log K of transfer, water to solvent","[3]; Hexadecane, 25 C",-0.188 log10 K
same,"log K of transfer, water to solvent","[3]; Hexane, 25 C",-0.34 log10 K
same,"log K of transfer, water to solvent","[3]; Perfluoroalkane, 25 C",-1.83 log10 K
CC(C)c1ccccc1,"log K of transfer, water to solvent",[1],3.66 log10 K
same,"log K of transfer, gas to solvent","[2]; Hexadecane, 25 C",4.08 log10 K
same,"log K of transfer, gas to solvent","[2]; Methanol, 25 C",3.8 log10 K
same,"log K of transfer, gas to solvent","[2]; Octan-1-ol, 25 C",3.98 log10 K
same,"log K of transfer, gas to solvent","[2]; Propan-2-ol, 25 C",3.79 log10 K
same,"log K of transfer, gas to solvent","[2]; Propanone, 25 C",4.32 log10 K
same,"log K of transfer, gas to solvent","[2]; Tetrahydrofuran, 25 C",4.77 log10 K
same,"log K of transfer, gas to solvent","[2]; Water, 25 C",0.22 log10 K
same,"log K of transfer, water to solvent","[3]; Acetone, 25 C",4.1 log10 K
same,"log K of transfer, water to solvent","[3]; Hexadecane, 25 C",3.86 log10 K
same,"log K of transfer, water to solvent","[3]; Methanol, 25 C",3.58 log10 K
same,"log K of transfer, water to solvent","[3]; Octan-1-ol(dry), 25 C",3.76 log10 K
same,"log K of transfer, water to solvent","[3]; Propan-2-ol, 25 C",3.57 log10 K
same,"log K of transfer, water to solvent","[3]; Tetrahydrofuran, 25 C",4.55 log10 K
CC(C)=O,"log K of transfer, water to solvent",[1],-0.24 log10 K
same,"log K of transfer, gas to solvent","[2]; 1,2-Dichloroethane, 25 C",3.13 log10 K
same,"log K of transfer, gas to solvent","[2]; Acetonitrile, 25 C",3.14 log10 K
same,"log K of transfer, gas to solvent","[2]; Benzene, 25 C",2.78 log10 K
same,"log K of transfer, gas to solvent","[2]; Butan-1-ol, 25 C",2.57 log10 K
same,"log K of transfer, gas to solvent","[2]; Butanone, 25 C",2.92 log10 K
same,"log K of transfer, gas to solvent","[2]; CCl4, 25 C",2.38 log10 K
same,"log K of transfer, gas to solvent","[2]; Chlorobenzene, 25 C",2.66 log10 K
same,"log K of transfer, gas to solvent","[2]; Chloroform, 25 C",3.29 log10 K
same,"log K of transfer, gas to solvent","[2]; Cyclohexane, 25 C",1.88 log10 K
same,"log K of transfer, gas to solvent","[2]; Cyclohexanone, 25 C",2.79 log10 K
same,"log K of transfer, gas to solvent","[2]; Di-n-butyl ether, 25 C",2.25 log10 K
same,"log K of transfer, gas to solvent","[2]; Dichloromethane, 25 C",3.39 log10 K
same,"log K of transfer, gas to solvent","[2]; Diethyl Ether, 25 C",2.57 log10 K
same,"log K of transfer, gas to solvent","[2]; Ethanol, 25 C",2.77 log10 K
same,"log K of transfer, gas to solvent","[2]; Hexadecane, 25 C",1.7 log10 K
same,"log K of transfer, gas to solvent","[2]; Hexane, 25 C",1.96 log10 K
same,"log K of transfer, gas to solvent","[2]; Methanol, 25 C",2.89 log10 K
same,"log K of transfer, gas to solvent","[2]; Octan-1-ol, 25 C",2.31 log10 K
same,"log K of transfer, gas to solvent","[2]; Pentan-1-ol, 25 C",2.49 log10 K
same,"log K of transfer, gas to solvent","[2]; Propan-2-ol, 25 C",2.46 log10 K
same,"log K of transfer, gas to solvent","[2]; Propanone, 25 C",3.04 log10 K
same,"log K of transfer, gas to solvent","[2]; Tetrahydrofuran, 25 C",2.85 log10 K
same,"log K of transfer, gas to solvent","[2]; Toluene, 25 C",2.63 log10 K
same,"log K of transfer, gas to solvent","[2]; Water, 25 C",2.83 log10 K
same,"log K of transfer, water to solvent","[3]; 1,2-Dichloroethane, 25 C",0.3 log10 K
same,"log K of transfer, water to solvent","[3]; Acetone, 25 C",0.21 log10 K
same,"log K of transfer, water to solvent","[3]; Acetonitrile, 25 C",0.31 log10 K
same,"log K of transfer, water to solvent","[3]; Benzene, 25 C",-0.05 log10 K
same,"log K of transfer, water to solvent","[3]; Butan-1-ol, 25 C",-0.26 log10 K
same,"log K of transfer, water to solvent","[3]; Butanone, 25 C",0.09 log10 K
same,"log K of transfer, water to solvent","[3]; CCl4, 25 C",-0.45 log10 K
same,"log K of transfer, water to solvent","[3]; Chlorobenzene, 25 C",-0.17 log10 K
same,"log K of transfer, water to solvent","[3]; Chloroform, 25 C",0.46 log10 K
same,"log K of transfer, water to solvent","[3]; Cyclohexane, 25 C",-0.948 log10 K
same,"log K of transfer, water to solvent","[3]; Cyclohexanone, 25 C",-0.041 log10 K
same,"log K of transfer, water to solvent","[3]; Di-n-butyl ether, 25 C",-0.58 log10 K
same,"log K of transfer, water to solvent","[3]; Dichloromethane, 25 C",0.56 log10 K
same,"log K of transfer, water to solvent","[3]; Diethyl Ether, 25 C",-0.26 log10 K
same,"log K of transfer, water to solvent","[3]; Ethanol, 25 C",-0.06 log10 K
same,"log K of transfer, water to solvent","[3]; Hexadecane, 25 C",-1.13 log10 K
same,"log K of transfer, water to solvent","[3]; Hexane, 25 C",-0.867 log10 K
same,"log K of transfer, water to solvent","[3]; Methanol, 25 C",0.06 log10 K
same,"log K of transfer, water to solvent","[3]; Octan-1-ol(dry), 25 C",-0.52 log10 K
same,"log K of transfer, water to solvent","[3]; Pentan-1-ol, 25 C",-0.34 log10 K
same,"log K of transfer, water to solvent","[3]; Propan-2-ol, 25 C",-0.37 log10 K
same,"log K of transfer, water to solvent","[3]; Tetrahydrofuran, 25 C",0.02 log10 K
same,"log K of transfer, water to solvent","[3]; Toluene, 25 C",-0.2 log10 K
